Data published in the NIST ThermoML archive (doi:10.1016/j.fluid.2005.03.032).

Assay: xn = mol fraction of the nth substance listed
Conditions: 310.95 K; for viscosity: Capillary tube (Ostwald / Ubbelohde) method; for mass density: Vibrating tube method

CCCC [butane] + C
Gas, x2 = 0.736
Conditions	mass density [kg/m3]	viscosity [mPa·s]
13790 kPa	265	0.0305
20680 kPa	329	0.0406

C [methane] + CCCCCCCCCC
Conditions	viscosity [mPa·s]
34610 kPa, Gas, x1 = 0.9514	0.0386
34610 kPa, Liquid, x1 = 0.8064	0.12
35160 kPa, Gas, x1 = 0.9514	0.0396
35160 kPa, Liquid, x1 = 0.8064	0.12
35850 kPa, Gas, x1 = 0.9514	0.0403
35850 kPa, Liquid, x1 = 0.8064	0.121
36230 kPa, Liquid, x1 = 0.8609	0.105
36300 kPa, Liquid, x1 = 0.8609	0.102
36370 kPa, Liquid, x1 = 0.8609	0.1
36540 kPa, Gas, x1 = 0.9514	0.041
36540 kPa, Liquid, x1 = 0.8064	0.122
36540 kPa, Liquid, x1 = 0.8609	0.096
36890 kPa, Liquid, x1 = 0.8609	0.095
37230 kPa, Gas, x1 = 0.9514	0.0416
37230 kPa, Liquid, x1 = 0.8064	0.123
37230 kPa, Liquid, x1 = 0.8609	0.095
37580 kPa, Liquid, x1 = 0.8609	0.095
37920 kPa, Gas, x1 = 0.9514	0.042
37920 kPa, Liquid, x1 = 0.8064	0.124
37920 kPa, Liquid, x1 = 0.8609	0.096
